Consider 1 molecule from patent publication US7767463B2, “Method for screening mobile phases in chromatography systems” (Cohesive Technologies, Inc., priority 2007, dated 2010).

The data set is classed as physicochemical. An excerpt:
The method provided herein provides for a technique to more reliably screen and select an appropriate eluent protocol. In an exemplary embodiment, reference is therefore made to FIG. 2. A given solvent or solvent combination may be prepared 210. Then a desired sample, alone or premixed with the same or another solvent, may be combined with the given solvent forming a mobile phase 220. The mobile phase may then be passed through a membrane 230. As discussed more fully below, the membrane may be representative of a particular chromatographic column with respect to variables such as pore diameter. The pressure of the mobile phase as it passes through the membrane may then be measured by pressure detectors on one or both sides of the membrane 240. The pressure differential between mobile phases containing the desired sample and various solvents may be assessed at 250. […]
The pressure developed prior to the membrane as the mobile phase passes through the membrane may be, as discussed above, indicative of the dissolution between the sample and the solvent. […] In addition, by comparing the pressure developed prior to the membrane of a given mobile phase P1 with a sample to a similar sample in other and different solvents, relative solubility may again be determined. […]

Turning to `c1ccc2ccccc2c1` [naphthalene], the pressure differential worked out at 25 bar.
